Assay results as given in the supplement of paper PMC10307832.

Columns and labels:
Test in all cases: relative viability (nuclei count vs DMSO), 5 days (fraction); higher = more cells survive
[1] = test system: 201T
Summary of the method: (§1)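 Lung cancer cell lines were pin-tool dosed in 1536-well plates on the day after seeding, with either a lone drug or a fixed anchor-drug dose plus five library-drug doses (not always all listed) in √10 steps. Nuclei were counted on 4× images after 5 days. Relative viability is the ratio of treated-well to vehicle-well nuclei counts, with each value a median of duplicate plates.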

[2] = test system: COR-L23
Summary of the method: as §1

[3] = test system: ChaGo-K-1
Summary of the method: as §1

[4] = test system: HARA
Summary of the method: as §1

[5] = test system: HCC-15
Summary of the method: as §1

[6] = test system: HCC-366
Summary of the method: as §1

[7] = test system: HCC-78
Summary of the method: as §1

[8] = test system: LCLC-103H
Summary of the method: as §1

[9] = test system: LCLC-97TM1
Summary of the method: as §1

[10] = test system: LOU-NH91
Summary of the method: as §1

[11] = test system: NCI-H1355
Summary of the method: as §1

[12] = test system: NCI-H1734
Summary of the method: as §1

[13] = test system: NCI-H1792
Summary of the method: as §1

[14] = test system: NCI-H2009
Summary of the method: as §1

[15] = test system: NCI-H2126
Summary of the method: as §1

[16] = test system: NCI-H441
Summary of the method: as §1

[17] = test system: NCI-H460
Summary of the method: as §1

[18] = test system: NCI-H596
Summary of the method: as §1

[19] = test system: NCI-H647
Summary of the method: as §1

[20] = test system: NCI-H650
Summary of the method: as §1

[21] = test system: PC-14
Summary of the method: as §1

[22] = test system: SW 900
Summary of the method: as §1

For `COCC1(CO)C(=O)C2CCN1CC2` (configuration not stated) [PRIMA-1MET] + Nc1ncn([C@H]2C[C@H](O)[C@@H](CO)O2)c(=O)n1 [Decitabine] (partner 2 µM), the relative viability ([1]; first compound 0.2 µM) was 0.921, the relative viability ([1]; first compound 0.6325 µM) was 0.607 and the relative viability ([1]; first compound 2 µM) was 0.762. It also gave a relative viability ([1]; first compound 6.325 µM) of 0.87, a relative viability ([1]; first compound 20 µM) of 0.896 and a relative viability ([2]; first compound 0.2 µM) of 0.538. It also gave a relative viability ([2]; first compound 0.6325 µM) of 0.243, a relative viability ([2]; first compound 2 µM) of 0.397 and a relative viability ([2]; first compound 6.325 µM) of 0.439. For the same compound, the relative viability ([2]; first compound 20 µM) was 0.036, the relative viability ([3]; first compound 0.2 µM) was 0.514 and the relative viability ([3]; first compound 0.6325 µM) was 0.362. The relative viability ([3]; first compound 2 µM) was 0.557, the relative viability ([3]; first compound 6.325 µM) was 0.518 and the relative viability ([3]; first compound 20 µM) was 0.518. For the same compound, the relative viability ([4]; first compound 0.2 µM) was 0.478, the relative viability ([4]; first compound 0.6325 µM) was 0.354 and the relative viability ([4]; first compound 2 µM) was 0.622. It also gave a relative viability ([4]; first compound 6.325 µM) of 0.607, a relative viability ([4]; first compound 20 µM) of 0.607 and a relative viability ([5]; first compound 0.2 µM) of 0.663. It also gave a relative viability ([5]; first compound 0.6325 µM) of 0.373, a relative viability ([5]; first compound 2 µM) of 0.647 and a relative viability ([5]; first compound 6.325 µM) of 0.585. It also gave a relative viability ([5]; first compound 20 µM) of 0.563, a relative viability ([6]; first compound 0.2 µM) of 0.325 and a relative viability ([6]; first compound 0.6325 µM) of 0.12. It also gave a relative viability ([6]; first compound 2 µM) of 0.294, a relative viability ([6]; first compound 6.325 µM) of 0.423 and a relative viability ([6]; first compound 20 µM) of 0.0554. The relative viability ([7]; first compound 0.2 µM) was 0.643, the relative viability ([7]; first compound 0.6325 µM) was 0.598 and the relative viability ([7]; first compound 2 µM) was 0.553. It also gave a relative viability ([7]; first compound 6.325 µM) of 0.697, a relative viability ([7]; first compound 20 µM) of 0.377 and a relative viability ([8]; first compound 0.2 µM) of 0.757. It also gave a relative viability ([8]; first compound 0.6325 µM) of 0.55, a relative viability ([8]; first compound 2 µM) of 0.685 and a relative viability ([8]; first compound 6.325 µM) of 0.78. It also gave a relative viability ([8]; first compound 20 µM) of 0.716, a relative viability ([9]; first compound 0.2 µM) of 0.286 and a relative viability ([9]; first compound 0.6325 µM) of 0.163. For the same compound, the relative viability ([9]; first compound 2 µM) was 0.209, the relative viability ([9]; first compound 6.325 µM) was 0.153 and the relative viability ([9]; first compound 20 µM) was 0.246. It also gave a relative viability ([10]; first compound 0.2 µM) of 0.89, a relative viability ([10]; first compound 0.6325 µM) of 0.794 and a relative viability ([10]; first compound 2 µM) of 0.806. For the same compound, the relative viability ([10]; first compound 6.325 µM) was 0.828, the relative viability ([10]; first compound 20 µM) was 0.613 and the relative viability ([11]; first compound 0.2 µM) was 0.366. It also gave a relative viability ([11]; first compound 0.6325 µM) of 0.347, a relative viability ([11]; first compound 2 µM) of 0.338 and a relative viability ([11]; first compound 6.325 µM) of 0.329. For the same compound, the relative viability ([11]; first compound 20 µM) was 0.323, the relative viability ([12]; first compound 0.2 µM) was 0.481 and the relative viability ([12]; first compound 0.6325 µM) was 0.289. For the same compound, the relative viability ([12]; first compound 2 µM) was 0.456, the relative viability ([12]; first compound 6.325 µM) was 0.474 and the relative viability ([12]; first compound 20 µM) was 0.0575. For the same compound, the relative viability ([13]; first compound 0.2 µM) was 0.523, the relative viability ([13]; first compound 6.325 µM) was 0.515 and the relative viability ([13]; first compound 20 µM) was 0.434. The relative viability ([14]; first compound 0.2 µM) was 0.383, the relative viability ([14]; first compound 0.6325 µM) was 0.389 and the relative viability ([14]; first compound 2 µM) was 0.341. The relative viability ([14]; first compound 6.325 µM) was 0.345, the relative viability ([14]; first compound 20 µM) was 0.153 and the relative viability ([15]; first compound 0.2 µM) was 0.59. It also gave a relative viability ([15]; first compound 0.6325 µM) of 0.579, a relative viability ([15]; first compound 2 µM) of 0.544 and a relative viability ([15]; first compound 6.325 µM) of 0.631. It also gave a relative viability ([15]; first compound 20 µM) of 0.619, a relative viability ([16]; first compound 0.2 µM) of 0.232 and a relative viability ([16]; first compound 0.6325 µM) of 0.21. The relative viability ([16]; first compound 2 µM) was 0.22, the relative viability ([16]; first compound 6.325 µM) was 0.23 and the relative viability ([16]; first compound 20 µM) was 0.169. It also gave a relative viability ([17]; first compound 0.2 µM) of 0.595, a relative viability ([17]; first compound 0.6325 µM) of 0.136 and a relative viability ([17]; first compound 2 µM) of 0.455. It also gave a relative viability ([17]; first compound 6.325 µM) of 0.513, a relative viability ([17]; first compound 20 µM) of 0.0203 and a relative viability ([18]; first compound 0.2 µM) of 1.09. It also gave a relative viability ([18]; first compound 0.6325 µM) of 0.855, a relative viability ([18]; first compound 2 µM) of 0.989 and a relative viability ([18]; first compound 6.325 µM) of 1.07. The relative viability ([18]; first compound 20 µM) was 0.655, the relative viability ([19]; first compound 0.2 µM) was 0.403 and the relative viability ([19]; first compound 0.6325 µM) was 0.236. It also gave a relative viability ([19]; first compound 2 µM) of 0.353, a relative viability ([19]; first compound 6.325 µM) of 0.333 and a relative viability ([19]; first compound 20 µM) of 0.39. The relative viability ([20]; first compound 0.2 µM) was 0.315, the relative viability ([20]; first compound 0.6325 µM) was 0.255 and the relative viability ([20]; first compound 2 µM) was 0.315. For the same compound, the relative viability ([20]; first compound 6.325 µM) was 0.332, the relative viability ([20]; first compound 20 µM) was 0.199 and the relative viability ([21]; first compound 0.2 µM) was 0.18. The relative viability ([21]; first compound 0.6325 µM) was 0.109, the relative viability ([21]; first compound 2 µM) was 0.211 and the relative viability ([21]; first compound 6.325 µM) was 0.21. For the same compound, the relative viability ([21]; first compound 20 µM) was 0.0433, the relative viability ([22]; first compound 0.2 µM) was 0.402 and the relative viability ([22]; first compound 0.6325 µM) was 0.386. It also gave a relative viability ([22]; first compound 6.325 µM) of 0.425 and a relative viability ([22]; first compound 20 µM) of 0.0976.
